In assay [1] the target is T1, cannabinoid receptor-1 (CB1), CB1R-containing cell membrane (Homo sapiens, UniProt P21554).
T1 construct: purchased Applied Cell Sciences Inc, Rockville, Md
Nature of the assay: biochemical. The assay is classed as binding. The note with it: for pIC50: displacement of 3H-CP55940 (1 nM) on CB1 receptors, read-out: IC50; for pKi: displacement of 3H-CP55940 on CB1 receptors, from serial dilutions, non-linear regression. How it is done: Method A using cell membranes. A compound is dissolved in DMSO and diluted to 1 M as a stock solution. […] A CB1R-containing cell membrane (Applied Cell Sciences Inc, Rockville, Md.) is diluted with binding buffer to a protein concentration of 28 μg/ml.
The mixture is incubated for 90 min at room temperature, then filtered through Whatman glass fiber C disc filter in a vacuum manifold. The filter is washed three times each with 2.5 ml cold wash buffer (binding buffer with only 2.5 mg/ml BSA). The vacuum-dried filter is transferred to a scintillation vial, treated with 3 ml Eco-Scint, and the radioactivity is read on a Beckman LS6500 scintillation counter from which an IC50 value is calculated. The corresponding Ki values are obtained from serial dilutions according to this method, and calculated through the use of a non-linear regression program (Graphpad Inc, San Diego, Calif.).

The target of assay [2] is T2, hCB1 (membranes from hCB1 stably transfected CHO cells) (Homo sapiens, UniProt P21554).
T2 construct: purchased Perkin Elmer/NEN; host or cells: CHO cells, stably transfected
T2 sequence (P21554 whole entry): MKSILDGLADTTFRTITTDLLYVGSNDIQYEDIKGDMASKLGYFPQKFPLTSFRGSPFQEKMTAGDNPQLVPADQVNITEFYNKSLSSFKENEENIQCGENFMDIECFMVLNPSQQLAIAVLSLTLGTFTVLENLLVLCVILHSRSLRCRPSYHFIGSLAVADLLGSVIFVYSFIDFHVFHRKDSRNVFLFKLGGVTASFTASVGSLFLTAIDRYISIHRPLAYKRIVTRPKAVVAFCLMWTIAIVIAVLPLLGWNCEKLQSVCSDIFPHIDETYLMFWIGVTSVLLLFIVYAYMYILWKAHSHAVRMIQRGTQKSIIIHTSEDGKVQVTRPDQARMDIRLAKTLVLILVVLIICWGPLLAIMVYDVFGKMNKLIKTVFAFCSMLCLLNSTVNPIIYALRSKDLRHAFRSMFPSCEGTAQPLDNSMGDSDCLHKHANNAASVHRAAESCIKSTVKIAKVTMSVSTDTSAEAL
Nature of the assay: Cannabinoid Receptor-1 (CB1) Functional Activity Assay, Method A (35S-GTPγS, WIN 55212-2). The note with it: for antagonism of WIN 55212-2 at CB1 receptors: FIGS. 3b-3d; for antagonism at CB1 receptors: FIGS. 5a, 6a, 7a, no WIN 55212-2 named in the legend; for antagonism of 3 μM WIN 55212-2 at CB1 receptors: FIGS. 5b, 6b, 7b. In kind it is biochemical. How it is done:
(§1) Membranes are diluted in ice-cold assay buffer (10 mM HEPES, 100 mM NaCl, 10 mM MgCl2, 2 μM GDP, 0.2% FAF-BSA, 10 μg/mL saponin) to 38 μg membranes/mL. Dilute ^35S-GTPγ5 to 1 nM in assay buffer. […] These solutions are incubated for 30 minutes at 30° C. The filters are washed 6 times with 10 mM sodium phosphate buffer (pH 7.4) at ambient temperature. The filters are counted using a liquid scintillation counter on the ^35S channel. Each compound/concentration is run in triplicate. A positive antagonism control may be run for AM251 at the same concentrations as test compounds under the same conditions.

For assay [3], the target named is T3, hCB2 (membranes from hCB2 stably transfected CHO cells) (Homo sapiens, UniProt P34972).
T3 construct: purchased Perkin Elmer/NEN; host or cells: CHO cells, stably transfected
T3 sequence (P34972 whole entry): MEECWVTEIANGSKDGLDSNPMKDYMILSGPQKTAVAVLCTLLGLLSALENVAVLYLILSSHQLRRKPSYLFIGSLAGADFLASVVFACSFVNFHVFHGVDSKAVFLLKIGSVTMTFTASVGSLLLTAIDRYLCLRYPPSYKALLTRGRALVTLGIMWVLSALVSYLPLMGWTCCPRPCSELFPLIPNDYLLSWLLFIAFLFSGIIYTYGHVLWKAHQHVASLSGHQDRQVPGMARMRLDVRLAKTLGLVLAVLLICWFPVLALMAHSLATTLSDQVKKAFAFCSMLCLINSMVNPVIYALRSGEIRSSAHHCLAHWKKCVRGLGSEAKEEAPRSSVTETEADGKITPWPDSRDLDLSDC
Nature of the assay: Cannabinoid Receptor-2 (CB2) Functional Activity Assay, Method A (35S-GTPγS). The assay is classed as biochemical. The note with it: positive control, FIG. 9a. How it is done:
as §1, with “^35S-GTPγS” for “^35S-GTPγ5”, “is” for “may be”, “AM630” for “AM251”
(GTPγS resists hydrolysis and so accumulates on activated G proteins.)

Assay [4] addresses T4, cannabinoid receptor-2 (CB2), CB2R-containing cell membrane; hCB2 receptors (Homo sapiens, UniProt P34972).
T4 construct: purchased Applied Cell Sciences Inc, Rockville, Md
Nature of the assay: Cannabinoid Receptor-2 (CB2) Binding Assay, Method A using cell membranes (displacement of 3H-CP55940). (Displacement assays read how much labelled ligand stays bound in the presence of the test substance.)

Where [5] appears, read: FIG. 8, against pre-bound CP55940 on CHO cells expressing hCB2 receptors.

SMILES strings stand for the structures. pIC50, pKi: −log10 of the molar value. Several values for one entry are separate records, joined by “and”; a condition that tells them apart may be missing. Equal entries are not always repeated.

T1 sequence (P21554 whole entry, species assumed): as the sequence (P21554 whole entry) above
T4 sequence (P34972 whole entry): as the sequence (P34972 whole entry) above

As for `CC(C)(C)C(=O)C(C(=O)OCc1ccccc1)N1C(=O)C(c2cccs2)C1C=Cc1ccccc1` (mixture of isomers) [Example 70C, Benzyl 2(RS)-tert-Butylcarbonyl-2-[3(S*)-2-thienyl)-4(R*)-(2-styryl)azetidin-2-on-1-yl]acetate], in assay [1], the pIC50 was 5.87 and 5.85; the pKi is 6.17. Moreover, in assay [2], the “antagonism of WIN 55212-2 at CB1 receptors” value was “antagonism”, the “antagonism at CB1 receptors” value is “antagonism” and the “antagonism of 3 μM WIN 55212-2 at CB1 receptors” value was “antagonism”.
As to `Cc1c(C(=O)NN2CCCCC2)nn(-c2ccc(Cl)cc2Cl)c1-c1ccc(I)cc1` [AM251, N-(piperidin-1-yl)-1-(2,4-dichlorophenyl)-5-(4-iodophenyl)-4-methyl-1H-pyrazole-3-carboxamide, reference compound], in assay [2], the “antagonism of WIN 55212-2 at CB1 receptors” value is on record as “antagonism”.
As for `CCCCCCC(C)(C)c1ccc(C2CC(O)CCC2CCCO)c(O)c1` (stereo not shown) [CP55940, 5-(1,1-dimethylheptyl)-2-[5-hydroxy-2-(3-hydroxypropyl)-cyclohexyl]-phenol], the “agonism of CB2 receptors” value in assay [3] is on record as “agonism”.
On to `O=C(NCc1cccc(C(F)(F)F)c1F)C(CC(=O)N1CCC(N2CCCCC2)CC1)N1C(=O)C(N2C(=O)OCC2c2ccccc2)C1C=Cc1ccccc1` [Example 33G, 2(R)-[[4-(Piperidinyl)piperidinyl]carbonylmethyl]-2-[3 (S)-(4(S)-phenyloxazolidin-2-on-3-yl)-4(R)-(2-styryl)azetidin-2-on-1-yl]acetic acid N-(2-fluoro-3-trifluoromethylbenzyl)carboxamide], for which, in assay [4] (setting [5]), the IC50 amounted to 273 nM and the Ki stood at 182 nM.
With `O=C(CC[C@@H](C(=O)N1CCN(C2CCCCC2)CC1)N1C(=O)[C@@H](N2C(=O)OC[C@@H]2c2ccccc2)[C@H]1/C=C/c1ccccc1)NCc1cc(F)cc(C(F)(F)F)c1` [Example 37S], in assay [1], the pIC50 is 5.64 and the negative-log Ki (pKi) was 5.94. For the same compound, in assay [2], the “antagonism of WIN 55212-2 at CB1 receptors” value is “antagonism”, the “antagonism at CB1 receptors” value is “antagonism” and the “antagonism of 3 μM WIN 55212-2 at CB1 receptors” value is reported as “antagonism”.
On to `O=C(CC[C@@H](C(=O)N1CCN(C2CCCCC2)CC1)N1C(=O)[C@@H](N2C(=O)OC[C@@H]2c2ccccc2)[C@H]1/C=C/c1ccccc1)NCc1ccc(Cl)c(C(F)(F)F)c1` [Example 37U], for which, in assay [1], the pIC50 was 5.68 and the negative logarithm of the Ki (pKi) is 5.97. In addition, in assay [2], the “antagonism at CB1 receptors” value is reported as “antagonism” and the “antagonism of 3 μM WIN 55212-2 at CB1 receptors” value is given as “antagonism”.
Consider `O=C(NCc1ccc(Cl)c(C(F)(F)F)c1)[C@H](CCC(=O)N1CCN(C2CCCCC2)CC1)N1C(=O)[C@@H](N2C(=O)OC[C@@H]2c2ccccc2)[C@H]1/C=C/c1ccccc1` [Example 38J], for which the concentration for half-maximal inhibition (IC50) in assay [4] (quoted for the single-dose negative control of the CB2 functional assay, assay of the IC50 not stated) is above 10000 nM.

The term pIC50 denotes −log10 of the IC50, conventionally taken in molar units. The term pKi denotes the negative decadic logarithm of the Ki, by convention in mol/L. As a reminder, the IC50 is the concentration that gives 50% inhibition. Read a high IC50 as lower potency. As a reminder, the Ki is the equilibrium dissociation constant of an inhibitor or competing ligand from its target. Higher therefore signals a looser hold on the target.

Values taken from patent US20100016274A1, “BETA-LACTAM CANNABINOID RECEPTOR MODULATORS” (priority 2006, published 2010).
